Legend:
[1] = Molar enthalpy of transition or fusion; settings: Crystal; Adiabatic calorimetry
[2] = molar heat capacity at saturation pressure

Cc1cc2ccccc2[nH]1 [2-methylindole]
Settings	Molar enthalpy of transition or fusion [kcal/mol]
[1]	3.547

molar heat capacity [J/K/mol], [2]
Settings	Crystal	Liquid
10 K, Vacuum adiabatic calorimetry	2.311	–
11.27 K, Vacuum adiabatic calorimetry	3.226	–
12.41 K, Vacuum adiabatic calorimetry	4.157	–
13.64 K, Vacuum adiabatic calorimetry	5.288	–
15.08 K, Vacuum adiabatic calorimetry	6.718	–
16.68 K, Vacuum adiabatic calorimetry	8.364	–
18.46 K, Vacuum adiabatic calorimetry	10.26	–
20 K, Vacuum adiabatic calorimetry	11.87	–
20.49 K, Vacuum adiabatic calorimetry	12.38	–
22.77 K, Vacuum adiabatic calorimetry	14.82	–
25.3 K, Vacuum adiabatic calorimetry	17.44	–
27.77 K, Vacuum adiabatic calorimetry	19.95	–
30 K, Vacuum adiabatic calorimetry	22.09	–
30.59 K, Vacuum adiabatic calorimetry	22.64	–
34.09 K, Vacuum adiabatic calorimetry	25.92	–
37.85 K, Vacuum adiabatic calorimetry	29.24	–
40 K, Vacuum adiabatic calorimetry	31.03	–
41.97 K, Vacuum adiabatic calorimetry	32.62	–
46.6 K, Vacuum adiabatic calorimetry	36.27	–
50 K, Vacuum adiabatic calorimetry	38.75	–
51.65 K, Vacuum adiabatic calorimetry	39.93	–
53.69 K, Vacuum adiabatic calorimetry	41.38	–
57.12 K, Vacuum adiabatic calorimetry	43.67	–
59.07 K, Vacuum adiabatic calorimetry	45	–
60 K, Vacuum adiabatic calorimetry	45.61	–
64.85 K, Vacuum adiabatic calorimetry	48.69	–
70 K, Vacuum adiabatic calorimetry	51.82	–
71.32 K, Vacuum adiabatic calorimetry	52.61	–
78.49 K, Vacuum adiabatic calorimetry	56.75	–
80 K, Vacuum adiabatic calorimetry	57.59	–
86.43 K, Vacuum adiabatic calorimetry	61.12	–
90 K, Vacuum adiabatic calorimetry	63.03	–
95.28 K, Vacuum adiabatic calorimetry	65.82	–
100 K, Vacuum adiabatic calorimetry	68.27	–
104.89 K, Vacuum adiabatic calorimetry	70.77	–
114.73 K, Vacuum adiabatic calorimetry	75.78	–
120 K, Vacuum adiabatic calorimetry	78.44	–
124.69 K, Vacuum adiabatic calorimetry	80.8	–
134.71 K, Vacuum adiabatic calorimetry	85.9	–
140 K, Vacuum adiabatic calorimetry	88.58	–
144.77 K, Vacuum adiabatic calorimetry	91.01	–
154.9 K, Vacuum adiabatic calorimetry	96.19	–
160 K, Vacuum adiabatic calorimetry	98.83	–
165.05 K, Vacuum adiabatic calorimetry	101.46	–
175.19 K, Vacuum adiabatic calorimetry	106.71	–
180 K, Vacuum adiabatic calorimetry	109.23	–
185.36 K, Vacuum adiabatic calorimetry	112.05	–
195.56 K, Vacuum adiabatic calorimetry	117.49	–
200 K, Vacuum adiabatic calorimetry	119.87	–
205.76 K, Vacuum adiabatic calorimetry	122.96	–
215.96 K, Vacuum adiabatic calorimetry	128.49	–
220 K, Vacuum adiabatic calorimetry	130.72	–
226.14 K, Vacuum adiabatic calorimetry	134.11	–
236.28 K, Vacuum adiabatic calorimetry	139.71	–
240 K, Vacuum adiabatic calorimetry	141.78	–
246.38 K, Vacuum adiabatic calorimetry	145.35	–
256.59 K, Vacuum adiabatic calorimetry	151.16	–
260 K, Vacuum adiabatic calorimetry	153.09	–
266.92 K, Vacuum adiabatic calorimetry	157.02	–
276.47 K, Vacuum adiabatic calorimetry	162.53	–
277.41 K, Vacuum adiabatic calorimetry	163.05	–
280 K, Vacuum adiabatic calorimetry	164.7	–
287.09 K, Vacuum adiabatic calorimetry	169.07	–
288.08 K, Vacuum adiabatic calorimetry	169.56	–
297.66 K, Vacuum adiabatic calorimetry	175.26	–
298.15 K, Vacuum adiabatic calorimetry	175.55	224.57
298.88 K, Vacuum adiabatic calorimetry	176.09	–
300 K, Vacuum adiabatic calorimetry	176.66	225.41
302.77 K, Vacuum adiabatic calorimetry	178.44	–
304.06 K, Vacuum adiabatic calorimetry	179.13	–
308.05 K, Vacuum adiabatic calorimetry	181.6	–
309.63 K, Vacuum adiabatic calorimetry	182.65	–
311.79 K, Vacuum adiabatic calorimetry	184.11	–
312.14 K, Vacuum adiabatic calorimetry	184.35	–
320 K, Vacuum adiabatic calorimetry	189.37	234.36
320.34 K, Vacuum adiabatic calorimetry	189.58	–
331.97 K, Vacuum adiabatic calorimetry	197.27	239.7
337.63 K, Vacuum adiabatic calorimetry	–	242.18
338.88 K, Vacuum adiabatic calorimetry	–	242.77
340 K, Vacuum adiabatic calorimetry	–	243.31
341.57 K, Vacuum adiabatic calorimetry	–	244.01
349.89 K, Vacuum adiabatic calorimetry	–	247.67
350.31 K, Vacuum adiabatic calorimetry	–	247.9
360 K, Vacuum adiabatic calorimetry	–	252.22
362.02 K, Vacuum adiabatic calorimetry	–	253.13
374.86 K, Vacuum adiabatic calorimetry	–	258.66
380 K, Vacuum adiabatic calorimetry	–	260.9
387.5 K, Vacuum adiabatic calorimetry	–	264.11
399.88 K, Vacuum adiabatic calorimetry	–	269.16
400 K, Vacuum adiabatic calorimetry	–	269.22
412.6 K, Vacuum adiabatic calorimetry	–	274.35
420 K, Vacuum adiabatic calorimetry	–	277.24
425.58 K, Vacuum adiabatic calorimetry	–	279.37
436.98 K, Vacuum adiabatic calorimetry	–	283.72
440 K, Vacuum adiabatic calorimetry	–	284.91
460 K, Small sample (50 mg) DSC	–	292.55
480 K, Small sample (50 mg) DSC	–	299.89
500 K, Small sample (50 mg) DSC	–	307.02
520 K, Small sample (50 mg) DSC	–	313.94
540 K, Small sample (50 mg) DSC	–	320.66
560 K, Small sample (50 mg) DSC	–	327.16
580 K, Small sample (50 mg) DSC	–	333.46
600 K, Small sample (50 mg) DSC	–	339.55
620 K, Small sample (50 mg) DSC	–	345.45
640 K, Small sample (50 mg) DSC	–	351.22
660 K, Small sample (50 mg) DSC	–	356.94
680 K, Small sample (50 mg) DSC	–	362.78
700 K, Small sample (50 mg) DSC	–	369.01

From the NIST ThermoML archive (doi:10.1016/j.jct.2018.05.029)
